In patent US10633407B2, “14-membered ketolides and methods of their preparation and use” (President and Fellows of Harvard College, priority 2014, dated 2020):
In brackets after ≈: the same amount, converted by molar mass. Read-outs that look alike come from different tables or passages of the source.

Legend:
Assay in all cases: CLSI broth dilution MIC determination
Format in all cases: cell-based
[1] = system: A. baumannii ATCC 19606
[2] = system: E. coli MP-9 ATCC25922:tolC; settings: Escherichia coli, ATCC25922
From the text: (§1) MIC data was collected for the novel macrolides that this platform has produced against over 21 unique strains of B. subtilis, E. coli, S. aureus, S. pneumoniae, and H. influenzae, including several multidrug-resistant strains, with a special focus on macrolide resistant mechanisms (vide supra). Azithromycin (Azithro) and Solithromycin (Solithro) were included as a control macrolides in many cases. CLSI standard procedures for broth dilution MIC determination were used. […] These genotypes can be constitutive or inducible.

[3] = system: S. aureus ATCC 29213
From the text: as §1

[4] = system: E. coli MP-532 clinical-cErmB; settings: Escherichia coli
From the text: as §1

[5] = system: E. coli MP-541 clinical; settings: Escherichia coli, MP541CLINICAL, read-out: MIC
From the text: as §1

[6] = system: S. aureus MRSA: USA300
From the text: as §1

[7] = system: E. coli ATCC 25922
From the text: as §1

[8] = system: S. aureus MP-17 ATCCBAA-977 (BAA 977 iErm); settings: Staphylococcus aureus; S. aureus MP-17, ATCCBAA-977, iErm; read-out: MIC
From the text: as §1

[9] = system: S. aureus (MRSA) MP-513 ST-228 cErm (Clinical-cErm); settings: Staphylococcus aureus, read-out: MIC
From the text: as §1

[10] = system: A. baumannii MP-577 Clinical-AZT low; settings: Acinetobacter baumannii, read-out: MIC
[11] = system: P. aeruginosa MP-7 PAO1; settings: Pseudomonas aeruginosa, read-out: MIC
[12] = system: P. aeruginosa ATCC 27853
[13] = system: A. baumannii MP-576 Clinical-MDR; settings: Acinetobacter baumannii, read-out: MIC
[14] = system: K. pneumoniae MP-546 Clinical-MDR; settings: Klebsiella pneumoniae, read-out: MIC
[15] = system: K. pneumoniae MP-548 clinical; settings: Klebsiella pneumoniae, MP548CLINICAL, read-out: MIC
[16] = system: P. aeruginosa MP-8 PAO1:mex (mex-oprM-deletion); settings: Pseudomonas aeruginosa, PAO1
[17] = system: K. pneumoniae ATCC 10031
[18] = system: S. pneumoniae ATCC 49619; settings: S. pneumoniae ATCC 49619; Gram-positive
From the text: as §1

[19] = system: E. coli NDM-1; settings: Gram-negative
From the text: as §1

[20] = system: H. influenzae ATCC49247; settings: Gram-negative
From the text: as §1

[21] = system: E. coli CTX-M-14; settings: Gram-negative
From the text: as §1

[22] = system: S. aureus MRSA: USA100; settings: S. aureus MRSA: USA100; Gram-positive
From the text: as §1

[23] = system: S. aureus erm A genotype; settings: S. aureus erm A genotype; Gram-positive
From the text: as §1

[24] = system: K. pneumoniae TEM-10; settings: Gram-negative
From the text: as §1

[25] = system: E. coli TEM-1; settings: E. coli TEM-1; Gram-negative
From the text: as §1

[26] = system: S. pneumoniae mef A genotype (second strain so labelled); settings: Gram-positive
From the text: as §1

[27] = system: S. aureus USA600, GISA; settings: S. aureus USA600, GISA; Gram-positive
From the text: as §1

[28] = system: K. pneumoniae KPC-2; settings: Gram-negative
[29] = system: K. pneumoniae SHV-12; settings: Gram-negative
[30] = system: A. baumannii imipenem-resistant; settings: Gram-negative
[31] = system: S. pyogenes Macrolide-resistant; settings: S. pyogenes Macrolide-resistant; Gram-positive
[32] = system: P. aeruginosa HPA101-1477; settings: Gram-negative
[33] = system: A. baumannii IMP-4; settings: Gram-negative
[34] = system: E. faecalis Vancomycin-resistant; settings: E. faecalis Vancomycin-resistant; Gram-positive
[35] = system: A. baumannii chromosomal class C; settings: Gram-negative
[36] = system: H. influenzae Erythro >4, Azithro 1; settings: H. influenzae Erythro >4, Azithro 1; Gram-negative
From the text: as §1, with “Azithromycin (Azithro) and Solithromycin (Solithro) were included as a control macrolides in many cases.” left out

[37] = system: E. faecalis ATCC 29212; settings: E. faecalis ATCC 29212; Gram-positive
[38] = system: S. pyogenes ATCC 19615; settings: S. pyogenes ATCC 19615; Gram-positive
[39] = Acinetobacter baumannii, ATCC19606, A. baumannii ATCC 19606 (MP-15), read-out: MIC
[40] = Staphylococcus aureus, ATCC29213, S. aureus ATCC 29213 (MP-12), read-out: MIC
[41] = Staphylococcus aureus, S. aureus MRSA: USA300 (MP-549, msr(a)), read-out: MIC
[42] = Escherichia coli, ATCC25922, E. coli ATCC 25922 (MP-4), read-out: MIC
[43] = Pseudomonas aeruginosa, ATCC27853, P. aeruginosa ATCC 27853 (MP-3), read-out: MIC
[44] = Klebsiella pneumoniae, ATCC10031, K. pneumoniae ATCC 10031 (MP-14), read-out: MIC

SMILES: CC[C@H]1OC(=O)[C@@](C)(F)C(=O)[C@H](C)[C@@H](O[C@@H]2OC(C)CC(N(C)C)C2O)[C@](C)(OC)C[C@@H](C)C(=O)[C@H](C)[C@H]2N(CC#CCn3cc(-c4cc(=O)cc[nH]4)nn3)C(=O)O[C@]12C (stereo partly shown) [FSM-100597]
- MIC [1, 39]: 64 µg/mL (≈ 75.9 µM)
- MIC [2]: 4 µg/mL (≈ 4.75 µM)
- MIC [3, 40]: 1 µg/mL (≈ 1.19 µM)
- MIC [4]: > 64 µg/mL
- MIC [5]: 32 µg/mL (≈ 38 µM)
- MIC [6, 41]: 2 µg/mL (≈ 2.37 µM)
- MIC [7, 42]: 64 µg/mL (≈ 75.9 µM)
- MIC [8]: 1 µg/mL (≈ 1.19 µM)
- MIC [9]: > 64 µg/mL
- MIC [10]: > 64 µg/mL
- MIC [11]: > 64 µg/mL
- MIC [12, 43]: > 64 µg/mL
- MIC [13]: > 64 µg/mL
- MIC [14]: > 64 µg/mL
- MIC [15]: > 64 µg/mL
- MIC [16]: 16 µg/mL (≈ 19 µM)
- MIC [17, 44]: 8 µg/mL (≈ 9.49 µM)

SMILES: CC[C@H]1OC(=O)[C@H](C)C(=O)[C@H](C)[C@@H](O[C@@H]2OC(C)CC(N(C)C)C2O)[C@](C)(OC)C[C@@H](C)C(=O)[C@H](C)[C@H]2N(NCCCn3nc4ccccc4n3)C(=O)O[C@]12C (stereo partly shown) [FSM-140132]
- MIC [1, 39]: 32 µg/mL (≈ 40.7 µM)
- MIC [2]: 2 µg/mL (≈ 2.54 µM)
- MIC [3, 40]: 0.25 µg/mL (≈ 0.318 µM)
- MIC [4]: > 64 µg/mL
- MIC [5]: 32 µg/mL (≈ 40.7 µM)
- MIC [6, 41]: 0.5 µg/mL (≈ 0.635 µM)
- MIC [7, 42]: 16 µg/mL (≈ 20.3 µM)
- MIC [8]: 0.25 µg/mL (≈ 0.318 µM)
- MIC [9]: > 64 µg/mL
- MIC [10]: 32 µg/mL (≈ 40.7 µM)
- MIC [11]: > 64 µg/mL
- MIC [12, 43]: > 64 µg/mL
- MIC [13]: > 64 µg/mL
- MIC [14]: > 64 µg/mL
- MIC [15]: 64 µg/mL (≈ 81.3 µM)
- MIC [16]: 8 µg/mL (≈ 10.2 µM)
- MIC [17, 44]: 4 µg/mL (≈ 5.08 µM)

SMILES: CC[C@H]1OC(=O)[C@@](C)(F)C(=O)[C@H](C)[C@@H](O[C@@H]2OC(C)CC(N(C)C)C2O)[C@](C)(OC)C[C@@H](C)C(=O)[C@H](C)[C@H]2N(C/C=C/Cn3cc(-c4ccccn4)nn3)C(=O)O[C@]12C (stereo partly shown) [FSM-100383]
- MIC ([1]; A. baumannii ATCC 19606, Gram-negative): 4 µg/mL (≈ 4.83 µM)
- MIC [18]: < 0.0312 µg/mL
- MIC ([3]; S. aureus ATCC 29213, Gram-positive): < 0.0312 µg/mL
- MIC [19]: 32 µg/mL (≈ 38.6 µM)
- MIC [20]: 0.5 µg/mL (≈ 0.603 µM)
- MIC [21]: > 32 µg/mL
- MIC [22]: > 32 µg/mL
- MIC [23]: > 32 µg/mL
- MIC [24]: 16 µg/mL (≈ 19.3 µM)
- MIC [25]: 16 µg/mL (≈ 19.3 µM)
- MIC ([6]; S. aureus MRSA: USA300, Gram-positive): 0.5 µg/mL (≈ 0.603 µM)
- MIC ([7]; E. coli ATCC 25922, Gram-negative): 8 µg/mL (≈ 9.65 µM)
- MIC [26]: < 0.0312 µg/mL
- MIC [27]: > 32 µg/mL
- MIC [28]: > 32 µg/mL
- MIC [29]: > 32 µg/mL
- MIC [30]: 8 µg/mL (≈ 9.65 µM)
- MIC [31]: < 0.0312 µg/mL
- MIC [32]: > 32 µg/mL
- MIC [33]: > 32 µg/mL
- MIC ([12]; P. aeruginosa ATCC 27853, Gram-negative): > 32 µg/mL
- MIC [34]: > 32 µg/mL
- MIC [35]: 8 µg/mL (≈ 9.65 µM)
- MIC [36]: 0.5 µg/mL (≈ 0.603 µM)
- MIC [37]: < 0.0312 µg/mL
- MIC [38]: < 0.0312 µg/mL
- MIC ([17]; K. pneumoniae ATCC 10031, Gram-negative): 2 µg/mL (≈ 2.41 µM)
